Each structure is given as a SMILES string.

In assay [1] the test system is HCT116, HT-29, K562, KG-1, A-498 and Caki-1 cell lines. Put plainly: MTT assay, all six tested cell lines. The assay is classed as cell-based. As to conditions: 10 μM, range over six cell lines.
Assay [2] relates to renal cancer cell lines A-498 and Caki-1. In words: MTT assay, renal cancer cell lines. The class given is cell-based. Particulars: for GI% renal cancer cell lines A-498 and Caki-1: 10 μM, range over both cell lines; for IC50: read-out: IC50 against the tested renal cancer cell lines. A general note: Formazan colour is commonly taken as a measure of viable cells.
The target of assay [3] is HDAC1 (Homo sapiens, UniProt Q13547). Put plainly: Fluorogenic enzymatic assay HDAC1. The assay is classed as biochemical.
Chain of HDAC1 (Q13547 whole entry): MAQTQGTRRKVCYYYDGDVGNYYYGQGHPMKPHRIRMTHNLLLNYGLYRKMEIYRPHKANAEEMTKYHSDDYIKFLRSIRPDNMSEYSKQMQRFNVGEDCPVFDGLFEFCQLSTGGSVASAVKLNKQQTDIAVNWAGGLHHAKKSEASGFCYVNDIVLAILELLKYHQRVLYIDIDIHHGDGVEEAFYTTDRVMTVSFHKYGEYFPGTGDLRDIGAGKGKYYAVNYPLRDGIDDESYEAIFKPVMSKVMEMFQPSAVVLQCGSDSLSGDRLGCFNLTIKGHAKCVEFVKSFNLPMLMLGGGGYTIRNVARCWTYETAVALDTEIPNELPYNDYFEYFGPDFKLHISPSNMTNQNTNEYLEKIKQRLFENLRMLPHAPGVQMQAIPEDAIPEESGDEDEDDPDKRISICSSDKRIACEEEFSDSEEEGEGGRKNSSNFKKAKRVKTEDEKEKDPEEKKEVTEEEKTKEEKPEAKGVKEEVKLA
Assay [4] has as its system HDAC2 and FAK in A-498 cells. Put plainly: Western blot of HDAC2 expression and FAK phosphorylation, A-498 cells. The class given is cell-based. Particulars: 24 h at IC50, Western blot. For orientation: In western blotting, separated proteins are transferred to a membrane and probed.
Assay [5] concerns HDAC2 and FAK in Caki-1 cells. In words: Western blot of HDAC2 expression and FAK phosphorylation, Caki-1 cells. The assay is classed as cell-based. Particulars: 24 h at IC50, Western blot.
The subject of assay [6] is Caki-1 cells. In words: Cell cycle analysis by flow cytometry, Caki-1. The class given is cell-based. As to conditions: 24 h.
Assay [7] relates to caspase-9. Put plainly: Caspase-9 ELISA in A-498 cells. As to conditions: 24 h, control 4.53. The class given is cell-based, human. (In an ELISA, binding on a coated surface is turned into a signal by an enzyme label.)
The test system of assay [8] is caspase-3. Put plainly: Active caspase-3 ELISA in A-498 cells. As to conditions: control 45.57. The class given is cell-based, human.
For assay [9], the system named is caspase-8. In words: Caspase-8 ELISA in A-498 cells. Particulars: 24 h, control 0.274. The assay is classed as cell-based, human.
In assay [10] the test system is HDAC2, p-FAK, p-Akt in A-498 cells. Put plainly: Resistance development assay, Western blot of HDAC2, p-FAK, FAK, p-Akt, Akt.
In assay [11] the test system is A-498 cells. Put plainly: Cell cycle analysis by flow cytometry, A-498. The class given is cell-based. As to conditions: 24 h.
The test system of assay [12] is STAT3 in A-498 cells. In words: Western blot of STAT3 activation. The assay is classed as cell-based.
Assay [13] has as its system K562. Put plainly: MTT proliferation assay, K562. The class given is cell-based. Particulars: Homo sapiens, K562, 24 h, read-out: Growth inhibition (%) K562.
For assay [14], the system named is HCT116. In words: MTT proliferation assay, HCT116. The class given is cell-based. Particulars: Homo sapiens, HCT-116, 24 h, read-out: Growth inhibition (%) HCT116.
For assay [15], the system named is A-498 cells. Put plainly: Resistance development assay. Particulars: Homo sapiens, A498, read-out: IC50 on pretreated A-498 cells.
Setting [16] is: A-498 cells, both pretreated (12 weeks) and not pretreated.
Setting [17] is: A-498 cells pretreated 12 weeks.

For orientation: IC50 means the point on the concentration scale where inhibition reaches its midpoint. Consider `O=C(O)CCCCCSc1nnc(-c2ccncc2)n1-c1ccccc1` [Compound 5d, 6-((4-phenyl-5-(pyridin-4-yl)-4H-1,2,4-triazol-3-yl)thio)hexanoic acid], for which the “GI% against all the tested cells” value in [1] was 40.12–99.81%. Besides, in assay [2], the “GI% renal cancer cell lines A-498 and Caki-1” value is on record as 89.34–99.81%; the half-maximal inhibitory concentration (IC50) fell in the range of 0.95 to 2.35 µM.

Compound `Cn1c(SCCCCCC(=O)NO)nnc1-c1ccncc1` [Compound 6a, N-hydroxy-6-((4-methyl-5-(pyridin-4-yl)-4H-1,2,4-triazol-3-yl)thio)hexanamide] came in with an IC50 in assay [3] of 12.3 ± 1.64 µM. Also, in assay [4], the FAK phosphorylation entry is given as “decreased” and the “expression level of HDAC2” value is recorded as “decreased”. Also, in assay [5], the FAK phosphorylation entry is “decreased” and the “expression level of HDAC2” value was “decreased”. Further, in [6] (1.5 μM), the “percentage of cells in G1 phase” value is recorded as “decreased” and the “percentage of cells in S phase” value was “minor changes”. The “percentage of cells in G2/M phase” value in assay [6] (control 5.5%) came to 35%. Moreover, the “Caspase-9 Concentration” value in assay [7] stood at 28.47 ng/mL. Besides, the Caspase-3 concentration in assay [8] came out at 515.40 pg/mL. Also, the “Caspase-8 Concentration” value in assay [9] amounted to 0.888 ng/mL. Also, in assay [10] (setting [16]), the Akt phosphorylation entry is reported as “substantial ability to inhibit”, the FAK phosphorylation entry was “steady ability to inhibit” and the HDAC2 expression entry is recorded as “steady ability to inhibit”. In assay [1], the “GI% against all the tested cells” value is on record as 40.12–99.81%. For the same compound, in assay [2], the “GI% renal cancer cell lines A-498 and Caki-1” value is 89.34–99.81%; the IC50 fell in the range of 0.95 to 2.35 µM. In assay [11] (1.5 μM), the “percentage of cells in G1 phase” value is on record as “decreased” and the “percentage of cells in S phase” value is on record as “minor changes”. Further, the “percentage of cells in G2/M phase” value in [11] (control 18%) was 65%. In addition, the STAT3 activation entry in [12] is reported as “inhibit”.

Take `Cn1c(SCCCCCC(=O)Nc2ccccc2N)nnc1-c1ccncc1` [Compound 7a, N-(2-aminophenyl)-6-((4-methyl-5-(pyridin-4-yl)-4H-1,2,4-triazol-3-yl)thio)hexanamide]: in assay [2], the IC50 was in the range of 6.19 to 20.9 µM.

Turning to `C=CCn1c(SCCCCCC(=O)Nc2ccccc2N)nnc1-c1ccncc1` [Compound 7c, 6-((4-allyl-5-(pyridin-4-yl)-4H-1,2,4-triazol-3-yl)thio)-N-(2-aminophenyl)hexanamide], in [4], the FAK phosphorylation entry is “entirely blocked”. In assay [5], the FAK phosphorylation entry is given as “entirely blocked”. Moreover, in assay [1], the “GI% against all the tested cells” value is 40.12–99.81%. In [2], the “GI% renal cancer cell lines A-498 and Caki-1” value was 89.34–99.81%; the half-maximal inhibitory concentration (IC50) lay within 0.95 to 2.35 µM.

The term inhibition denotes the drop in the measured response relative to a control, in per cent. `Nc1ccccc1NC(=O)CCCCCSc1nnc(-c2ccncc2)n1-c1ccccc1` [Compound 7d, N-(2-aminophenyl)-6-((4-phenyl-5-(pyridin-4-yl)-4H-1,2,4-triazol-3-yl)thio)hexanamide]: the inhibition at 10 µM in assay [13] is 15.1%.

In the case of `Cn1c(SCc2ccc(C(=O)NO)cc2)nnc1-c1ccncc1` [Compound 10a, N-hydroxy-4-(((4-methyl-5-(pyridin-4-yl)-4H-1,2,4-triazol-3-yl)thio)methyl)benzamide], the IC50 in assay [2] is 6.19 to 20.9 µM. Further, the inhibition at 10 µM in assay [14] turned out to be 32.4%.

For `C=CCn1c(SCc2ccc(C(=O)NO)cc2)nnc1-c1ccncc1` [Compound 10c, 4-(((4-allyl-5-(pyridin-4-yl)-4H-1,2,4-triazol-3-yl)thio)methyl)-N-hydroxybenzamide], the half-inhibitory concentration (IC50) in assay [2] lay within 6.19 to 20.9 µM.

For `O=C(NO)c1ccc(CSc2nnc(-c3ccncc3)n2-c2ccccc2)cc1` [Compound 10d, N-hydroxy-4-(((4-phenyl-5-(pyridin-4-yl)-4H-1,2,4-triazol-3-yl)thio)methyl)benzamide], the concentration for half-maximal inhibition (IC50) in assay [2] fell in the range of 6.19 to 20.9 µM.

Regarding `Cn1c(SCc2ccc(C(=O)Nc3ccccc3N)cc2)nnc1-c1ccncc1` [Compound 11a, N-(2-aminophenyl)-4-(((4-methyl-5-(pyridin-4-yl)-4H-1,2,4-triazol-3-yl)thio)methyl)benzamide], the IC50 in assay [2] lay within 6.19 to 20.9 µM.

Regarding `C=CCn1c(SCc2ccc(C(=O)Nc3ccccc3N)cc2)nnc1-c1ccncc1` [Compound 11c, 4-(((4-allyl-5-(pyridin-4-yl)-4H-1,2,4-triazol-3-yl)thio)methyl)-N-(2-aminophenyl)benzamide], the “GI% against all the tested cells” value in assay [1] was 40.12–99.81%. Also, in assay [2], the “GI% renal cancer cell lines A-498 and Caki-1” value was 89.34–99.81%; the IC50 lay within 0.95 to 2.35 µM.

As to `Nc1ccccc1NC(=O)c1ccc(CSc2nnc(-c3ccncc3)n2-c2ccccc2)cc1` [Compound 11d, N-(2-aminophenyl)-4-(((4-phenyl-5-(pyridin-4-yl)-4H-1,2,4-triazol-3-yl)thio)methyl)benzamide], the half-maximal inhibitory concentration (IC50) in assay [2] is 6.19 to 20.9 µM. Further, the inhibition at 10 µM in [14] was 45.4%.

As to `CCCC(CCC)C(=O)O` [VPA, valproic acid, reference compound], the IC50 in assay [15] is 3090 µM. Besides, in assay [10] (setting [17]), the Akt phosphorylation result is “drastic overexpression” and the HDAC2 expression result is “lower ability to inhibit”.

Source of the values: publication PMC8818328 (European journal of medicinal chemistry, 2021).
